Measured values: patent EP2140864A2 (H. Lundbeck A/S, priority 2001, dated 2002)
pKi: −log10 of the molar value. Where two headings read alike, the source gives them in different places.

Assays:
[1] = target: T1, human 5HT1F (Homo sapiens, UniProt P30939); assay: Radioligand binding, 5HT1F receptor ([3H]-serotonin)
T1 construct: expressed in transfected cells
T1 sequence (P30939 1-366): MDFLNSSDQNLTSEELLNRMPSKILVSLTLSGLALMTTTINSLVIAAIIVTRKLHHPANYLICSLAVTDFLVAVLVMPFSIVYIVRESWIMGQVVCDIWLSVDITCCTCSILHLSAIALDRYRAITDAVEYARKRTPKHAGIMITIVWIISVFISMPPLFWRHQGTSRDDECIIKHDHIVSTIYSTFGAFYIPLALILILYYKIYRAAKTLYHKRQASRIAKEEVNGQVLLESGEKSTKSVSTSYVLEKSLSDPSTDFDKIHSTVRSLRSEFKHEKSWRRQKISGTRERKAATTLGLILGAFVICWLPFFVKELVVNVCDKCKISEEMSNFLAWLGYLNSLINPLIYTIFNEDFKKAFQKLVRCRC
Protocol: (§1) Human 5HT1B, 5HT1D, 5HT1E, 5HT1F, and 5HT7 Receptors: The cell lysates of LM(tk-) clonal cell line stably transfected with the genes encoding each of these 5HT receptor-subtypes were prepared as described above. Cell membranes were suspended in 50mM Tris-HCl buffer (pH 7.4 at 37°C) containing 10 mM MgCl2, 0.2 mM EDTA, 10 µM pargyline, and 0.1% ascorbate. […] Nonspecific binding was determined in the presence of 10 µM serotonin. The bound radioligand was separated by filtration through GF/B filters using a cell harvester.
(§2) Binding data were analyzed using nonlinear regression and statistical techniques available in the GraphPAD Prism package (San Diego, CA). Enzymatic assay data were derived from a standard curve of reference compound data.

[2] = target: T2, Human 5HT2A Receptor (Homo sapiens, UniProt P28223); assay: Radioligand binding, 5HT2A receptor ([3H]ketanserin)
T2 construct: expressed in transfected cells; host or cells: COS-7 cells (pCEXV-3 vector, DEAE-dextran)
Protocol: Human 5HT2A Receptor: The coding sequence of the human 5HT2A receptor was obtained from a human brain cortex cDNA library, and cloned into the cloning site of pCEXV-3 eukaryotic expression vector. This construct was transfected into COS-7 cells by the DEAE-dextran method (Cullen, 1987). Cells were harvested after 72 hours and lysed by sonication in 5 mM Tris-HCl, 5 mM EDTA, pH 7.5. The cell lysates were subjected to centrifugation at 1000 rpm for 5 minutes at 4°C, and the supernatant was subjected to centrifugation at 30,000 x g for 20 minutes at 4°C. The pellet was suspended in 50 mM Tris-HCl buffer (pH 7.7 at room temperature) containing 10 mM MgS04, 0.5 mM EDTA, and 0.1% ascorbate. The affinity of compounds at 5HT2A receptors were determined in equilibrium competition binding assays using [^3H]ketanserin (1 nM). Nonspecific binding was defined by the addition of 10 µM mianserin. The bound radioligand was separated by filtration through GF/B filters using a cell harvester.
as §2

[3] = target: T3, human α1B adrenoceptor (Homo sapiens, UniProt P35368); assay: Radioligand binding, α1B adrenergic receptor
T3 construct: expressed in transfected cells
T3 sequence (P35368 1-520): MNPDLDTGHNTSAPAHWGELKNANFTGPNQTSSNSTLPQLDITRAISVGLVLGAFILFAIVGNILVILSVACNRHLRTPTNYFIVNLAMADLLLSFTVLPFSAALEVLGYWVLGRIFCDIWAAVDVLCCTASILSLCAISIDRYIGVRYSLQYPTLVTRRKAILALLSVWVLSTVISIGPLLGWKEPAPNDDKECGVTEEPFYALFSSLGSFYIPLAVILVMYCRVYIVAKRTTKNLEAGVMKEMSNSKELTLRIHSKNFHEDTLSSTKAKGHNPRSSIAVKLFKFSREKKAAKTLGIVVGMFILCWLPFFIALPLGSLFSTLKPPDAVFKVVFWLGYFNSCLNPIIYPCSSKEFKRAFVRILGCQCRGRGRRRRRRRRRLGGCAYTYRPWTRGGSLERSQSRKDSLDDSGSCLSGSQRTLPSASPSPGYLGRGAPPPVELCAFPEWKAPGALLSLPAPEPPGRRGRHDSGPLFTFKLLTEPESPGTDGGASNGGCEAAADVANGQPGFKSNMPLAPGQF

[4] = target: T4, human α1A adrenoceptor (Homo sapiens, UniProt P35348); assay: Radioligand binding, α1A adrenergic receptor
T4 construct: expressed in transfected cells
T4 sequence (P35348 1-466): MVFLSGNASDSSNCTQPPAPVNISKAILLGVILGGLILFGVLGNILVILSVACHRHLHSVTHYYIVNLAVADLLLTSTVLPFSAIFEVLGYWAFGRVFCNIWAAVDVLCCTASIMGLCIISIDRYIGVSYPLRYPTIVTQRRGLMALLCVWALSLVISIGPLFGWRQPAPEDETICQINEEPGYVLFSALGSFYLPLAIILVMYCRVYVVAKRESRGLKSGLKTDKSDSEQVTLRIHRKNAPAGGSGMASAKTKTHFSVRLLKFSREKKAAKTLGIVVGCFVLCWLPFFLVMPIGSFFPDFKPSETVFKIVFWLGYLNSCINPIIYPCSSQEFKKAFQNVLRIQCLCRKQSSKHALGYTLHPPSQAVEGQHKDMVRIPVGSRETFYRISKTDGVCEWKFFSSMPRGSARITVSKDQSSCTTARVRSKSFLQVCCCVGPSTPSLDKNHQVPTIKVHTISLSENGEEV
Description: (§3) Other receptors: Cell membranes expressing human dopamine D1, D2, D4 and rat D3 receptors were purchased through BioSignal, Inc. (Montreal, Canada). Binding assays using the histamine H1 receptor; dopamine receptors; and α1A, α1E, and α2 adrenergic receptors may be carried out according to the procedures described in U.S. Patent No. 5,780,485, the disclosure of which is hereby incorporated by reference in its entirety into this application. Binding assays using the dopamine D5 receptor may be carried out according to the procedures described in U.S. Patent No. 5,882,855, the disclosure of which is hereby incorporated by reference in its entirety into this application. Binding assays for the human α1D adrenergic receptor may be carried out according to the procedures described in U.S. Patent No. 6,156,518, the disclosure of which is hereby incorporated by reference in its entirety into this application.
as §2

[5] = target: T5, human 5HT1D (Homo sapiens, UniProt P28221); assay: Radioligand binding, 5HT1D receptor ([3H]-serotonin)
T5 construct: expressed in transfected cells
Protocol: as §1, §2

[6] = target: T6, rat D3 receptors (Rattus norvegicus, UniProt P19020); assay: Radioligand binding, dopamine D3 receptor
T6 construct: purchased BioSignal, Inc. (Montreal, Canada)
Description: as §3, §2

[7] = Table 8; Ki h5HT1F divided by Ki hGAL3
[8] = Table 8; Ki h5HT2A divided by Ki hGAL3
[9] = Table 10; Ki hα1B divided by Ki hGAL3
[10] = Table 10; Ki hα1A divided by Ki hGAL3
[11] = Table 8; Ki h5HT1D divided by Ki hGAL3
[12] = Table 10; Ki rD3 divided by Ki hGAL3

T2 sequence (P28223 whole entry): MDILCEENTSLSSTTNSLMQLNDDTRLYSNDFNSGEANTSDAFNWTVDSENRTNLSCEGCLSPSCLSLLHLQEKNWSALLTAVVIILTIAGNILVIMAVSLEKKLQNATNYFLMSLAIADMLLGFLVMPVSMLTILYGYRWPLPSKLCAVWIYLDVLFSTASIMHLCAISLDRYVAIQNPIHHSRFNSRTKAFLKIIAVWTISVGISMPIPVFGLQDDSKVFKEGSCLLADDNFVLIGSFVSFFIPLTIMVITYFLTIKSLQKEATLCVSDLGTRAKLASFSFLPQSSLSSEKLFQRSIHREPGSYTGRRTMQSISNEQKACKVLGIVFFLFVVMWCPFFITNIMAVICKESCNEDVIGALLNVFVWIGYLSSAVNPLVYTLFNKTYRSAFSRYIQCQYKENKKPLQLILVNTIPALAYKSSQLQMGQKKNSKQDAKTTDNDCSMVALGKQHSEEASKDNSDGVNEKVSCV
T6 sequence (P19020 whole entry): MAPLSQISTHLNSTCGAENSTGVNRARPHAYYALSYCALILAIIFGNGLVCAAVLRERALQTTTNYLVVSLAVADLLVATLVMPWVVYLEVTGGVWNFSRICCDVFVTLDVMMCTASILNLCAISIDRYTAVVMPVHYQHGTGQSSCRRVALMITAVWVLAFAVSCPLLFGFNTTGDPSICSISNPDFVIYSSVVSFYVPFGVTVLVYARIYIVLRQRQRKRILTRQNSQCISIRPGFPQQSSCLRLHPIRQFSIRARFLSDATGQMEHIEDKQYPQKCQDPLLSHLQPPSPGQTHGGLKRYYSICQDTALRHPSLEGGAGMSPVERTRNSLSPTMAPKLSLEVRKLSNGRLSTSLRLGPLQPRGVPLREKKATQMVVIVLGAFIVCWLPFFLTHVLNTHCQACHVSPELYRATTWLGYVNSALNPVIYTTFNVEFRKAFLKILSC
T5 sequence (P28221 whole entry): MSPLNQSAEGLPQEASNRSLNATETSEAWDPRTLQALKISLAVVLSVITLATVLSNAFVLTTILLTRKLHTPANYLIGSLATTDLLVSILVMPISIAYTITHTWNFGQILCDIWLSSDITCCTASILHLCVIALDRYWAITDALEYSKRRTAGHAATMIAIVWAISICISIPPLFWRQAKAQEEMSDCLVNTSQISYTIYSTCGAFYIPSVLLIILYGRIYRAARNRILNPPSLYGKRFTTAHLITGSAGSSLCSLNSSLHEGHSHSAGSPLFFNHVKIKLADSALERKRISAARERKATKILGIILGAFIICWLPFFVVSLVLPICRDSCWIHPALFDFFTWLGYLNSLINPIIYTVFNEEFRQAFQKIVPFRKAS

| SMILES | pKi ([1]; Table 7; read-out: h5HT1F Ki) | selectivity ratio h5HT1F [1, 7] | pKi ([2]; Table 7; read-out: h5HT2A Ki) | selectivity ratio h5HT2A [2, 8] | pKi ([3]; Table 9; read-out: hα1B Ki) | selectivity ratio hα1B [3, 9] | pKi ([4]; Table 9; read-out: hα1A Ki) | selectivity ratio hα1A [4, 10] | pKi ([5]; Table 7; read-out: h5HT1D Ki) | selectivity ratio h5HT1D [5, 11] | pKi ([6]; Table 9; read-out: rD3 Ki) | selectivity ratio rD3 [6, 12] | pKi ([1]; read-out: h5HT1F Ki; Table 7) | pKi ([2]; read-out: h5HT2A Ki; Table 7) | pKi ([3]; read-out: hα1B Ki; Table 9) | pKi ([4]; read-out: hα1A Ki; Table 9) | pKi ([5]; read-out: h5HT1D Ki; Table 7) | pKi ([6]; read-out: rD3 Ki; Table 9) |
| --- | --- | --- | --- | --- | --- | --- | --- | --- | --- | --- | --- | --- | --- | --- | --- | --- | --- | --- |
| Cc1ccc(Nc2cc(N3CCCCC3)nc(N(C)CCc3c[nH]c4ccccc34)n2)cc1 [Example 11] | 5.75 | 20 | 5.17 | >30 | 5.84 | 16 | 6.03 | 10 | 6.99 | 1 | 5.67 | 24 | – | – | – | – | – | – |
| CN(CCc1c[nH]c2ccccc12)c1nc(Nc2ccc(F)c(F)c2)cc(N2CCCCC2)n1 [Example 15] | 5.38 | >30 | 4.95 | >100 | 6.07 | 12 | 5.47 | 46 | 5.90 | 17 | 5.06 | >100 | – | – | – | – | – | – |
| COc1cccc(Nc2cc(N3CCCCC3)nc(N(C)CCc3c[nH]c4ccccc34)n2)c1 [Example 17] | 4.99 | >100 | 5.15 | >30 | 5.93 | 13 | 6.00 | 11 | 5.99 | 12 | 5.61 | 28 | – | – | – | – | – | – |
| Cc1ccc(Nc2cc(N3CCCCC3)nc(N(C)CCc3ccccc3)n2)cc1 [Example 22] | 5.24 | >100 | 4.68 | >100 | 5.80 | >30 | 5.89 | >30 | 5.73 | >30 | 5.25 | >100 | – | – | – | – | – | – |
| Cc1ccc(Nc2cc(N3CCCCC3)nc(N3CCN(c4ncccc4C(F)(F)F)CC3)n2)cc1 [Example 34] | 5.32 | >100 | – | >100 | 4.82 | >100 | 5.43 | >100 | 5.53 | >100 | 5.00 | >100 | – | – | – | – | – | – |
| COC[C@@H]1[C@@H](c2ccccc2)OCCN1c1nc(Nc2ccc(C)cc2)cc(N2CCCCC2)n1 [Example 49] | – | >30 | – | >100 | – | >30 | – | >30 | – | >30 | – | >30 | 5.05 | < 4.30 | 4.72 | 5.18 | 4.77 | 4.85 |
| CN(C)c1cc(Nc2ccc(Cl)c(Cl)c2)nc(Nc2ccccc2)n1 [Example 60] | 5.67 | 25 | 4.58 | >100 | 4.39 | >100 | 4.87 | >100 | 5.04 | >100 | 4.82 | >100 | – | – | – | – | – | – |
| Cc1ccc(Nc2cc(N(C)C)nc(N(C)CCc3c[nH]c4ccccc34)n2)cc1 [Example 77] | 5.49 | >30 | 5.65 | 28 | 6.34 | 6 | 6.08 | 11 | 6.15 | 9 | 5.57 | >30 | – | – | – | – | – | – |
| O=C1C(=Nc2cccc(C(F)(F)F)c2)c2ccccc2N1c1ccccc1 [Example 92, 1-PHENYL-3- [[3-(TRIFLUOROMETHYL)PHENYL]IMINO]-1,3-DIHYDRO-2H-INDOL-2-ONE] | – | >100 | – | >100 | – | >100 | – | – | – | >100 | – | >100 | – | – | – | – | – | – |
| O=C1C(=Nc2cccc(Cl)c2)c2ccccc2N1c1ccccc1 [Example 94, 3-[(3-CHLOROPHENYL)IMINO]-1-PHENYL-1,3-DIHYDRO-2H-INDOL-2-ONE] | 5.25 | >100 | < 4.30 | >100 | 4.51 | >100 | 4.90 | >100 | 4.97 | >100 | 6.37 | 9 | – | – | – | – | – | – |
| O=C1C(=Nc2ccc(C(F)(F)F)cc2)c2ccccc2N1c1ccccc1 [Example 95, 1-PHENYL-3-[[4-(TRIFLUOROMETHYL)PHENYL]IMINO]-1,3-DIHYDRO-2H-INDOL-2-ONE] | 5.35 | >100 | < 4.30 | >100 | 4.49 | >100 | 4.88 | >100 | 4.80 | >100 | 6.33 | 16 | – | – | – | – | – | – |
